Test results reported in patent US20240342292A1, “Compounds for the Degradation of EGFR Kinase” (BeiGene Switzerland GmbH, priority 2021, published 2024).
Where “and” joins values, the source holds several entries; their conditions need not be identical. Identical values can stand only once.

Tests used:
[1] = system: Del19/T790M/C797S EGFR; test: EGFR degradation HTRF assay in H1975-clone #28 (DTC) cells; type: cell-based; settings: H1975 # 28 DTC (Del19/T790M/C797S), 16h treatment; for DC50: HTRF; for Dmax (%): maximum percentage of degradation
Procedure, shortened: (§1)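 H1975 clones stably overexpressing mutant EGFR by lentivirus, with endogenous EGFR knocked out by sgRNA and homozygosity confirmed by sequencing, were treated 16 h at 37 °C with compounds in 0.2% DMSO medium, 8 doses from 10 uM in 5-fold dilution. Lysates were read by HTRF (665/620 nm); DC50 came from a four-parameter fit.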

[2] = target: T1, L858R/T790M/C797S EGFR (Homo sapiens, UniProt P00533, C797S/L858R/T790M); test: EGFR degradation HTRF assay in H1975-clone #25 (LTC) cells; type: cell-based; settings: 16h treatment; for DC50: HTRF; for Dmax: NCI-H1975, H1975 # 25-LTC (L858R/T790M/C797S)
T1 construct: expressed in transfected cells; host or cells: H1975 clone #25 (lentiviral over-expression, endogenous EGFR knocked out by sgRNA)
T1 sequence (P00533 25-1210 T790M/C797S/L858R): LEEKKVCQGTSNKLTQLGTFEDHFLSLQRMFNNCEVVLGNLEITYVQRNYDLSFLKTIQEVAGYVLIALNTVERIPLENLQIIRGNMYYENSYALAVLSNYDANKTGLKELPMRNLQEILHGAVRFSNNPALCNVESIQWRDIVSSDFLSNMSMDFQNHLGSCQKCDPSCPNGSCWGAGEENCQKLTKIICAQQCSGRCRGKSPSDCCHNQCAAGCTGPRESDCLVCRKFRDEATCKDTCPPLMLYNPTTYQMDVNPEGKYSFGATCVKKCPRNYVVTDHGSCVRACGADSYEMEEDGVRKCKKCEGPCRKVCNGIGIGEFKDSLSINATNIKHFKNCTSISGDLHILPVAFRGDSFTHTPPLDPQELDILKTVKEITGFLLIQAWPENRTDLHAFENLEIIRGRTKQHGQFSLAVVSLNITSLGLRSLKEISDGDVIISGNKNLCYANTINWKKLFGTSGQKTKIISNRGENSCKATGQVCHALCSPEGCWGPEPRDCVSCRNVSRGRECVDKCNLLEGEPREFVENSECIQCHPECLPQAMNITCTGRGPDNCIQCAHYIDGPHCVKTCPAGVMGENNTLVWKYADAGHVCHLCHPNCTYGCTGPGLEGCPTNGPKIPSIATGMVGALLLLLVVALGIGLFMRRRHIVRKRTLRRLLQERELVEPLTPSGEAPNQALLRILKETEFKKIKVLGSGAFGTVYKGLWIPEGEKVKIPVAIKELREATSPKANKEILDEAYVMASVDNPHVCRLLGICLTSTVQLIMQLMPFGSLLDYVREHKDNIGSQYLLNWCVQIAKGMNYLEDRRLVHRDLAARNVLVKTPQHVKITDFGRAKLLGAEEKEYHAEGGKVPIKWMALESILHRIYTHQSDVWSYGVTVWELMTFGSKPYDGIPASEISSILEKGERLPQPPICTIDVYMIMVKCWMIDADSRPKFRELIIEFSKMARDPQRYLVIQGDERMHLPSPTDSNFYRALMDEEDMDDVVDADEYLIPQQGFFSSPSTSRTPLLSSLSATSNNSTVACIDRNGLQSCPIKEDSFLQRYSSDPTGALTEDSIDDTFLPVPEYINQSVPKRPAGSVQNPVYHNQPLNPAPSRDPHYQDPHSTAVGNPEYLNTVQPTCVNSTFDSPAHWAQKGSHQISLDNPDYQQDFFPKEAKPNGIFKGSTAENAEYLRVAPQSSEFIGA
Procedure, shortened: as §1

[3] = H1975 # 25-LTC (L858R/T790M/C797S)
[4] = maximum percentage of degradation

| SMILES | DC50 [1] | DC50 [2, 3] | Dmax [2, 4] [%] | Dmax (%) ([2]; H1975 # 25-LTC (L858R/T790M/C797S), maximum percentage of degradation) | Dmax (%) [1] |
| --- | --- | --- | --- | --- | --- |
| Cc1cc2cc(n1)-c1cnn(C)c1OCCC[C@@H](C)CN1/C(=N/C2=O)Nc2ccc(N3CCC(N4CC(Nc5cc(F)c([C@H]6CCC(=O)NC6=O)c(F)c5)C4)CC3)cc21 [Example 392, (R)-3-(2,6-difluoro-4-((1-(1-((R,E)-1^1,2^6,7-trimethyl-3-oxo-5^2,5^3-dihydro-1^1H,5^1H-11-oxa-4-aza-5(2,1)-benzo[d]imidazola-2(2,4)-pyridina-1(4,5)-pyrazolacycloundecaphane-5^6-yl)piperidin-4-yl)azetidin-3-yl)amino)phenyl)piperidine-2,6-dione] | 0.821 nM | 1.29 nM | 86.7 |  | 75.48% |
| Cc1cc2cc(n1)-c1cnn(C)c1OCC[C@H]1C[C@@H]1CN1/C(=N/C2=O)Nc2ccc(N3CCN(C4CCN(c5ccc(C6CCC(=O)NC6=O)nc5)CC4)CC3)cc21 (stereo partly drawn) [Example 469, 3-(5-(4-(4-((7'S,7^2R,E)-1^1,2^6-dimethyl-3-oxo-5^2,5^3-dihydro-1^1H,5^1H-10-oxa-4-aza-5(2,1)-benzo[d]imidazola-2(2,4)-pyridina-1(4,5)-pyrazola-7(1,2)-cyclopropanacyclodecaphane-5^6-yl)piperazin-1-yl)piperidin-1-yl)pyridin-2-yl)piperidine-2,6-dione] | 0.594 nM | 0.794 nM | 82.7 |  | 76.63% |
| Cc1cc2cc(n1)-c1cnn(C)c1OCCC[C@@H](C)CN1/C(=N/C2=O)Nc2ccc(C(=O)N(C)C3CCN(CCC4CN(c5cc(F)c([C@H]6CCC(=O)NC6=O)c(F)c5)C4)CC3)cc21 [Example 285, (R,E)-N-(1-(2-(1-(4-((R)-2,6-dioxopiperidin-3-yl)-3,5-difluorophenyl)azetidin-3-yl)ethyl)piperidin-4-yl)-N,1^1,2^6,7-tetramethyl-3-oxo-5^2,5^3-dihydro-1^1H,5^1H-11-oxa-4-aza-5(2,1)-benzo[d]imidazola-2(2,4)-pyridina-1(4,5)-pyrazolacycloundecaphane-5^6-carboxamide] | 0.667 nM | 0.651 nM | 89.8 |  | 77.98% |
| Cc1cc2cc(n1)-c1cnn(C)c1OCCC[C@@H](C)CN1/C(=N/C2=O)Nc2ccc(C(=O)N[C@@H]3CCN(CCc4cc(F)c([C@H]5CCC(=O)NC5=O)c(F)c4)C[C@H]3F)cc21 [Example 345, (R,E)-N—((3R,4R)-1-(4-((R)-2,6-dioxopiperidin-3-yl)-3,5-difluorophenethyl)-3-fluoropiperidin-4-yl)-1^1,2^6,7-trimethyl-3-oxo-5^2,5^3-dihydro-1^1H,5^1H-11-oxa-4-aza-5(2,1)-benzo[d]imidazola-2(2,4)-pyridina-1(4,5)-pyrazolacycloundecaphane-5^6-carboxamide] | 0.662 nM and 0.7 nM | 0.634 nM and 0.6 nM | 92.5 | 92.5 | 74.46% and 74.5% |
| Cc1cc2cc(n1)-c1cnn(C)c1OCCC[C@@H](C)CN1/C(=N/C2=O)Nc2ccc(C(=O)N(CCN3CCC(c4cc(F)c([C@H]5CCC(=O)NC5=O)c(F)c4)CC3)C(C)C)cc21 [Example 283, (R,E)-N-(2-(4-(4-((R)-2,6-dioxopiperidin-3-yl)-3,5-difluorophenyl)piperidin-1-yl)ethyl)-N-isopropyl-1^1,2^6,7-trimethyl-3-oxo-5^2,5^3-dihydro-1^1H,5^1H-11-oxa-4-aza-5(2,1)-benzo[d]imidazola-2(2,4)-pyridina-1(4,5)-pyrazolacycloundecaphane-5^6-carboxamide] | 0.617 nM | 0.494 nM | 80.2 |  | 72.52% |

Continued by falling DC50 [1], values first:

| DC50 [1] | DC50 [2, 3] | Dmax [2, 4] [%] | Dmax (%) ([2]; H1975 # 25-LTC (L858R/T790M/C797S), maximum percentage of degradation) | SMILES | Dmax (%) [1] |
| --- | --- | --- | --- | --- | --- |
| 1.48 nM | 2.92 nM | 82 |  | Cc1cc2cc(n1)-c1cnn(C)c1OCCC[C@@H](C)CN1/C(=N/C2=O)Nc2ccc(CN3CCN(C(=O)[C@@H]4CCN(c5cc(F)c([C@H]6CCC(=O)NC6=O)c(F)c5)C4)CC3)c(F)c21 [Example 59, (R)-3-(2,6-difluoro-4-((R)-3-(4-(((R,E)-5^7-fluoro-1^1,2^6,7-trimethyl-3-oxo-5^2,5^3-dihydro-1^1H,5^1H-11-oxa-4-aza-5(2,1)-benzo[d]imidazola-2(2,4)-pyridina-1(4,5)-pyrazolacycloundecaphane-5^6-yl)methyl)piperazine-1-carbonyl)pyrrolidin-1-yl)phenyl)piperidine-2,6-dione] | 78.58% |
| 1.38 nM | 1.22 nM | 86 |  | Cc1cc2cc(n1)-c1cnn(C)c1OCCC[C@@H](C)CN1/C(=N/C2=O)Nc2ccc(CN3CCN(C(=O)[C@@H]4CCN(c5cc(F)c([C@H]6CCC(=O)NC6=O)c(F)c5)C4)CC3=O)cc21 [Example 200, (R)-3-(2,6-difluoro-4-((R)-3-(3-oxo-4-(((R,E)-1^1,2^6,7-trimethyl-3-oxo-5^2,5^3-dihydro-1^1H,5^1H-11-oxa-4-aza-5(2,1)-benzo[d]imidazola-2(2,4)-pyridina-1(4,5)-pyrazolacycloundecaphane-5^6-yl)methyl)piperazine-1-carbonyl)pyrrolidin-1-yl)phenyl)piperidine-2,6-dione] | 73.04% |
| 0.7 nM | 0.6 nM | 88.6 |  | Cc1cc2cc(n1)-c1cnn(C)c1OCCC[C@@H](C)CN1/C(=N/C2=O)Nc2ccc(CN3C[C@@H]4C[C@H]3CN4C(=O)[C@@H]3CCN(c4cc(F)c([C@H]5CCC(=O)NC5=O)c(F)c4)C3)cc21 [Example 82, (R)-3-(2,6-difluoro-4-((R)-3-((1S,4S)-5-(((R,E)-1^1,2^6,7-trimethyl-3-oxo-5^2,5^3-dihydro-1^1H,5^1H-11-oxa-4-aza-5(2,1)-benzo[d]imidazola-2(2,4)-pyridina-1(4,5)-pyrazolacycloundecaphane-5^6-yl)methyl)-2,5-diazabicyclo[2.2.1]heptane-2-carbonyl)pyrrolidin-1-yl)phenyl)piperidine-2,6-dione] | 78.4% |
| 0.678 nM | 0.646 nM | 85 |  | Cc1cc2cc(n1)-c1cnn(C)c1OCCC[C@@H](C)CN1/C(=N/C2=O)Nc2ccc(N3CCN(C[C@H]4CCN(c5cc(F)c([C@H]6CCC(=O)NC6=O)c(F)c5)C4)CC3=O)cc21 [Example 464, (R)-3-(2,6-difluoro-4-((R)-3-((3-oxo-4-((R,E)-1^1,2^6,7-trimethyl-3-oxo-5^2,5^3-dihydro-1^1H,5^1H-11-oxa-4-aza-5(2,1)-benzo[d]imidazola-2(2,4)-pyridina-1(4,5)-pyrazolacycloundecaphane-5^6-yl)piperazin-1-yl)methyl)pyrrolidin-1-yl)phenyl)piperidine-2,6-dione] | 82.71% |
| 0.624 nM | 0.91 nM | 91.2 |  | CO[C@@H]1CN(CCc2cc(F)c([C@H]3CCC(=O)NC3=O)c(F)c2)CC[C@H]1N(C)C(=O)c1ccc2c(c1)N1C[C@H](C)CCCOc3c(cnn3C)-c3cc(cc(C)n3)C(=O)/N=C/1N2 [Example 254, (R,E)-N—((3R,4R)-1-(4-((R)-2,6-dioxopiperidin-3-yl)-3,5-difluorophenethyl)-3-methoxypiperidin-4-yl)-N,1^1,2^6,7-tetramethyl-3-oxo-5^2,5^3-dihydro-1^1H,5^1H-11-oxa-4-aza-5(2,1)-benzo[d]imidazola-2(2,4) -pyridina-1(4,5)-pyrazolacycloundecaphane-5^6-carboxamide] | 86.3% |
